These results are taken from article PMC5036048, “Rational improvement of gp41-targeting HIV-1 fusion inhibitors: an innovatively designed Ile-Asp-Leu tail with alternative conformations” (Scientific Reports, 2016).

Assay [1] deals with T20-resistant strain N42T, N43K. Format: cell-based, HIV-1. Conditions: triplicate, repeated twice, mean ± SD, read-out: IC50 (nM) against N42T, N43K. From the text:
(§1) Table 2 Inhibitory activities of CP, CP-IDL and T20 against T2635 or T20 resistant strains. | column: IC50 (nM) of / CP; IC50 (nM) of / CP-IDL; IC50 (nM) of / T20

For assay [2], the system named is T2635-resistant strain N113E. Format: cell-based, HIV-1. The note with it: triplicate, repeated twice, mean ± SD, read-out: IC50 (nM) against N113E.
From the text: as §1

For assay [3], the system named is WT (T2635-resistant strain panel). Format: cell-based, HIV-1. The note with it: triplicate, repeated twice, mean ± SD, read-out: IC50 (nM) against WT.
From the text: as §1

For assay [4], the system named is T2635-resistant strain N126K. Type of assay: cell-based, HIV-1. The note with it: triplicate, repeated twice, mean ± SD, read-out: IC50 (nM) against N126K.
From the text: as §1

Assay [5] concerns T2635-resistant strain Q66R, N126K. Type of assay: cell-based, HIV-1. Conditions: triplicate, repeated twice, mean ± SD, read-out: IC50 (nM) against Q66R, N126K.
From the text: as §1

Assay [6] concerns WT (T20-resistant strain panel). Format: cell-based, HIV-1. Conditions: triplicate, repeated twice, mean ± SD, read-out: IC50 (nM) against WT.
From the text: as §1

For assay [7], the system named is T2635-resistant strain K154Q. Type of assay: cell-based, HIV-1. The note with it: triplicate, repeated twice, mean ± SD, read-out: IC50 (nM) against K154Q.
From the text: as §1

Another assay concerns BG505.W6M.ENV.C2. Format: cell-based, HIV-1. Conditions: subtype A; triplicate, repeated twice, mean ± SD; read-out: IC50 (nM) against BG505.W6M.ENV.C2. From the text: (§2) Table 1 Inhibitory activities of CP, CP-IDL and T20 against HIV-1 pseudovirus. | column: IC50 (nM) of / CP; IC50 (nM) of / CP-IDL; IC50 (nM) of / T20
For another assay, the system named is SF162.LS. Format: cell-based, HIV-1. The note with it: subtype B, R5, Tier 1; triplicate, repeated twice, mean ± SD; read-out: IC50 (nM) against SF162.LS.
From the text: as §2

The test system of a further assay is CRF02_AG clone 242. Type of assay: cell-based, HIV-1. Conditions: subtype AG, R5, Tier 1; triplicate, repeated twice, mean ± SD; read-out: IC50 (nM) against CRF02_AG clone 242.
From the text: as §2

In a further assay the test system is B1206.W6P.ENV.A1. Format: cell-based, HIV-1. Conditions: subtype A; triplicate, repeated twice, mean ± SD; read-out: IC50 (nM) against B1206.W6P.ENV.A1.
From the text: as §2

The test system of the next assay is pCH119 env. Format: cell-based, HIV-1. Conditions: subtype BC, R5, Tier 2; triplicate, repeated twice, mean ± SD; read-out: IC50 (nM) against pCH119 env.
From the text: as §2

For a further assay, the system named is CRF02_AG/A1 clone 280. Format: cell-based, HIV-1. Conditions: subtype AG/A1, R5, Tier 2; triplicate, repeated twice, mean ± SD; read-out: IC50 (nM) against CRF02_AG/A1 clone 280.
From the text: as §2

The test system of a further assay is CRF02_AG clone 33. Format: cell-based, HIV-1. Conditions: subtype AG, R5, Tier 3; triplicate, repeated twice, mean ± SD; read-out: IC50 (nM) against CRF02_AG clone 33.
From the text: as §2

The test system of another assay is MJ412.W0M.ENV.B1. Format: cell-based, HIV-1. The note with it: subtype C; triplicate, repeated twice, mean ± SD; read-out: IC50 (nM) against MJ412.W0M.ENV.B1.
From the text: as §2

The subject of another assay is BJ412.W6M.ENV.S3. Type of assay: cell-based, HIV-1. The note with it: subtype C; triplicate, repeated twice, mean ± SD; read-out: IC50 (nM) against BJ412.W6M.ENV.S3.
From the text: as §2

For a further assay, the system named is ZM109F.PB4. Format: cell-based, HIV-1. The note with it: subtype C, R5; triplicate, repeated twice, mean ± SD; read-out: IC50 (nM) against ZM109F.PB4.
From the text: as §2

The next assay concerns CRF02_AG clone 278. Type of assay: cell-based, HIV-1. The note with it: subtype AG, R5, Tier 3; triplicate, repeated twice, mean ± SD; read-out: IC50 (nM) against CRF02_AG clone 278.
From the text: as §2

In assay [8] the test system is HIV-1 92UG024 (subtype D, X4). Format: cell-based. On the procedure:
(§3) Inhibition activities of peptides on infection by HIV-1 clinical strains were determined as previously described. For inhibition of HIV-1 92TH009 (subtype A/E, R5) and 92UG024 (subtype D, X4) infection,100 TCID50 of the virus was added to 1 × 10^5/ml M7 cells in RPMI 1640 medium containing 10% FBS in the presence or absence of the test peptide overnight. Then, the culture supernatants were changed to fresh media. On the fourth day post-infection, culture supernatants were collected for detection of p24 antigen by ELISA. The percent inhibition of p24 production was calculated using the computer program Calcusyn.

In assay [9] the test system is HIV-1 92TH009 (subtype A/E, R5). Description: Inhibition of HIV-1 clinical strain infection of M7 cells, p24 antigen ELISA. Type of assay: cell-based. The protocol: as §3

Ends that are not written are not given here. Some results are limits rather than exact numbers.

On to WEEWDKKIEEYTKKIEELIKKSQNQQ [CP], for which the IC50 is > 500 nM in [1]; 297 ± 22 nM in [2]; 195 ± 12 nM in assay [3]; 462 ± 44 nM in assay [4]; > 500 nM in assay [5]; 181 ± 16 nM in assay [6]. Also, the IC50 is > 500 nM in [7]; 26.5 ± 8.6 nM in the assay on BG505.W6M.ENV.C2; 78.8 ± 11 nM in the assay with SF162.LS; 61.2 ± 13 nM in the assay on CRF02_AG clone 242; > 2000 nM in the assay on B1206.W6P.ENV.A1; 42.3 ± 2.9 nM in the assay on pCH119 env. In addition, the IC50 with CRF02_AG/A1 clone 280 amounted to 213 ± 14 nM; in the assay with CRF02_AG clone 33, 111 ± 4.8 nM; in the assay on MJ412.W0M.ENV.B1 it was 46 ± 3.2 nM; in the assay on BJ412.W6M.ENV.S3, 51.9 ± 12 nM; in the assay on ZM109F.PB4 it was 63.4 ± 4.6 nM; with CRF02_AG clone 278 it was 44.4 ± 13 nM. In addition, the IC50 in assay [8] (M7 cells, 100 TCID50 virus, peptide overnight, p24 ELISA on day 4 post-infection, read-out: IC50, inhibition of HIV-1 92UG024 infection) came to 208 nM; in assay [9] (M7 cells, 100 TCID50 virus, peptide overnight, p24 ELISA on day 4 post-infection) it was 281 nM.

As to WEEWDKKIEEYTKKIEELIKKSQNQQIDL [CP-IDL], the IC50 in [1] was 382 ± 82 nM; in assay [2], 7.99 ± 3.5 nM; in assay [3], 10.8 ± 1.2 nM; in assay [4] it was 46.4 ± 16 nM; in assay [5] it was 302 ± 34 nM; in assay [6] it was 8.67 ± 1.6 nM. The IC50 stood at 9.79 ± 2.9 nM in assay [7]; 8.61 ± 2.8 nM in the assay with BG505.W6M.ENV.C2; 1.51 ± 0.4 nM with SF162.LS; 6.24 ± 3.7 nM in the assay with CRF02_AG clone 242; 74.5 ± 12 nM in the assay on B1206.W6P.ENV.A1; 5.79 ± 1.1 nM in the assay with pCH119 env. The IC50 in the assay with CRF02_AG/A1 clone 280 was determined as 5.62 ± 1.2 nM; with CRF02_AG clone 33 it was 2.82 ± 0.5 nM; in the assay on MJ412.W0M.ENV.B1 it was 2.24 ± 1.3 nM; in the assay with BJ412.W6M.ENV.S3, 1.21 ± 0.1 nM; with ZM109F.PB4, 2.93 ± 1.2 nM; with CRF02_AG clone 278, 8.59 ± 2.4 nM. In addition, the “Increase of potency over CP” value worked out at 55 fold in assay [8] (92UG024, ratio of IC50 to CP) and 109 fold in [9] (92TH009, ratio of IC50 to CP). In addition, the “Activity stronger than that of T20” value in assay [8] (92UG024, ratio of IC50 to T20) is on record as 12 fold; in assay [9] (92TH009), 24 fold.
